Holding throughout (type): in vivo
One series relates to Cyperus difformis. Briefly: Test Example 3: herbicidal effect by application to foliage (Wagner pot, water depth 0.1-0.5 cm). As to conditions: Nineteenth Table; application to foliage; application herbicide amount 320 g/ha. The source says: (§1) 5 Herbicidal ratio of 90% or more (almost completely withered) 4 Herbicidal ratio of 70% or more and less than 90% 3 Herbicidal ratio of 40% or more and less than 70% 2 Herbicidal ratio of 20% or more and less than 40% 1 Herbicidal ratio of 5% or more and less than 20% 0 Herbicidal ratio of 5% or less (almost no effect) [Test Example 3] Herbicidal Effect Test by Application to Foliage After alluvial soil was placed into 1/10000 are of Wagner pot, water was poured and mixed to form a condition having a water depth of 0.1 cm to 0.5 cm. Seeds of Echinochloa crus-galli var. crus-galli, Leptochloa chinensis, Cyperus difformis, and Oryza sativa were sowed and the pot was placed in the greenhouse of 25° C. to 30° C. to grow the plants. After the plants were grown for 14 days, the emulsion agent containing the compound of the present invention prepared in accordance with Formulation Example 2 was diluted with water so as to be a predetermined herbicide amount and the diluted compound was uniformly applied to a stem and leaf part with a small-size spray. Three weeks after the herbicide application, effects on each plant were investigated in accordance with the criteria of Test Example 1. A: Echinochloa oryzicola Vasing., B: Scirpus juncoides, C: Monochoria vaginalis, D: Leptochloa chinensis, E: Cyperus difformis, F: Digitaria ciliaris, G: Setaria viridis, H: Echinochloa crus-galli var. crus-galli, I: Avena fatua, J: Alopecurus myosuroides, K: Lolium multiflorum Lam., L: Apera spica-venti., M: Abutilon theophrasti, N: Amaranthus retroflexus, O: Chenopodium album, P: Stellaria media, Q: Galium spurium, R: Veronica persica, a: transplanted Oryza sativa, b: directly sowed Oryza sativa, c: Zea mays, d: Glycine max, e: Triticum aestivum, f: Beta vulgaris ssp. vulgaris, and g: Brassica campestris L. The application herbicide amount (g/ha) means an amount that a concentration is adjusted so that, when an application amount is converted into per hectare (1 ha), the herbicide is applied by the number of grams (g) of the described value.

The test system of series [1] is Echinochloa crus-galli var. crus-galli. The series is described as above. Conditions: Nineteenth Table; application to foliage; application herbicide amount 320 g/ha.
Excerpt: as §1

For another series, the system named is Leptochloa chinensis. Described as above. Conditions: Nineteenth Table; application to foliage; application herbicide amount 320 g/ha.
Excerpt: as §1

In a further series the test system is Abutilon theophrasti. Briefly: Test Example 4: herbicidal effect by application to foliage (diluvial soil, plastic box). Conditions: application to foliage, 320 g/ha. The source says: (§2) 5 Herbicidal ratio of 90% or more (almost completely withered) 4 Herbicidal ratio of 70% or more and less than 90% 3 Herbicidal ratio of 40% or more and less than 70% 2 Herbicidal ratio of 20% or more and less than 40% 1 Herbicidal ratio of 5% or more and less than 20% 0 Herbicidal ratio of 5% or less (almost no effect) [Test Example 4] Herbicidal Effect Test by Application to Foliage Sterilized diluvial soil was placed in a plastic box having a length of 21 cm, a width of 13 cm, and a depth of 7 cm. Each of the seeds of Digitaria ciliaris, Setaria viridis, Echinochloa crus-galli var. crus-galli, Avena fatua, Alopecurus myosuroides, Lolium multiflorum Lam., Apera spica-venti., Abutilon theophrasti, Amaranthus retroflexus, Chenopodium album, Stellaria media, Galium spurium, Veronica persica, Zea mays, Glycine max, Oryza sativa, Triticum aestivum, Beta vulgaris ssp. vulgaris, and Brassica campestris L. was sowed in a spot-like manner and was covered with the soil of about 1.5 cm thick. Thereafter, the plants were grown in the greenhouse of 25° C. to 30° C. After the plants were grown for 14 days, the emulsion agent containing the compound of the present invention prepared in accordance with Formulation Example 2 was diluted with water so as to be a predetermined herbicide amount and the diluted compound was uniformly applied to a stem and leaf part with a small-size spray. Three weeks after the herbicide application, effects on each plant were investigated in accordance with the criteria of Test Example 1. A: Echinochloa oryzicola Vasing., B: Scirpus juncoides, C: Monochoria vaginalis, D: Leptochloa chinensis, E: Cyperus difformis, F: Digitaria ciliaris, G: Setaria viridis, H: Echinochloa crus-galli var. crus-galli, I: Avena fatua, J: Alopecurus myosuroides, K: Lolium multiflorum Lam., L: Apera spica-venti., M: Abutilon theophrasti, N: Amaranthus retroflexus, O: Chenopodium album, P: Stellaria media, Q: Galium spurium, R: Veronica persica, a: transplanted Oryza sativa, b: directly sowed Oryza sativa, c: Zea mays, d: Glycine max, e: Triticum aestivum, f: Beta vulgaris ssp. vulgaris, and g: Brassica campestris L. The application herbicide amount (g/ha) means an amount that a concentration is adjusted so that, when an application amount is converted into per hectare (1 ha), the herbicide is applied by the number of grams (g) of the described value.

The next series concerns Alopecurus myosuroides. The series is described as above. As to conditions: application to foliage, 320 g/ha.
Excerpt: as §2

For the next series, the system named is Amaranthus retroflexus. Described as above. As to conditions: application to foliage, 320 g/ha.
Excerpt: as §2

Another series deals with Apera spica-venti. The series is described as above. As to conditions: application to foliage, 320 g/ha.
Excerpt: as §2

A further series concerns Avena fatua. The description is as above. Conditions: application to foliage, 320 g/ha.
Excerpt: as §2

The test system of a further series is Chenopodium album. The series is described as above. Conditions: application to foliage, 320 g/ha.
Excerpt: as §2

The next series concerns Digitaria ciliaris. The series is described as above. Conditions: application to foliage, 320 g/ha.
Excerpt: as §2

Series [2] has as its system Echinochloa crus-galli var. crus-galli. The description is as above. Conditions: application to foliage, 320 g/ha.
Excerpt: as §2

The test system of the next series is Galium spurium. Described as above. Conditions: application to foliage, 320 g/ha.
Excerpt: as §2

The next series relates to Lolium multiflorum Lam. Described as above. As to conditions: application to foliage, 320 g/ha.
Excerpt: as §2

The test system of the next series is Setaria viridis. The description is as above. As to conditions: application to foliage, 320 g/ha.
Excerpt: as §2

The test system of a further series is Stellaria media. The series is described as above. As to conditions: application to foliage, 320 g/ha.
Excerpt: as §2

The next series concerns Veronica persica. The series is described as above. Conditions: application to foliage, 320 g/ha.
Excerpt: as §2

Series [3] has as its system Beta vulgaris ssp. vulgaris. Briefly: Test Example 4: effect on crop by application to foliage (diluvial soil, plastic box). As to conditions: application to foliage, 320 g/ha. Put shortly: (§3)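 Seeds sown in sterilized diluvial soil, covered ~1.5 cm, grown 14 days in greenhouse at 25° C. to 30° C. Emulsion formulation diluted in water to set rate (g/ha) and sprayed onto stems and leaves. Effect scored visually 3 weeks later on 0–5 scale (5 = ≥90% herbicidal ratio, 0 = ≤5%).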

A further series deals with Brassica campestris L. The description is as above. As to conditions: application to foliage, 320 g/ha. Put shortly:
as §3

The next series relates to Glycine max. The description is as above. Conditions: application to foliage, 320 g/ha. Put shortly: as §3
Another series concerns Triticum aestivum. The description is as above. Conditions: application to foliage, 320 g/ha. The essentials:
as §3

A further series has as its system Zea mays. The description is as above. As to conditions: application to foliage, 320 g/ha. The essentials: as §3
Series [4] concerns directly sowed Oryza sativa. Described as above. As to conditions: application to foliage, 320 g/ha. Put shortly:
as §3

This is an account of results in patent US9708314B2, “Heterocyclic amide compound” (NISSAN CHEMICAL INDUSTRIES, LTD., priority 2013, dated 2017).

Turning to `CCOC(=O)Cn1nnnc1NC(=O)c1ccc(C(F)(F)F)n2c(C(C)C)nnc12` [2-092], the “E (herbicidal effect grade)” value in the series with Cyperus difformis is 2 (Herbicidal ratio of 20% or more and less than 40%). In addition, the “H (herbicidal effect grade)” value in series [1] was 2 (Herbicidal ratio of 20% or more and less than 40%). The “D (herbicidal effect grade)” value in the series on Leptochloa chinensis is 3 (Herbicidal ratio of 40% or more and less than 70%). Also, the “herbicidal effect, M (Abutilon theophrasti)” value in the series with Abutilon theophrasti is 1 (Herbicidal ratio of 5% or more and less than 20%). The “herbicidal effect, J (Alopecurus myosuroides)” value with Alopecurus myosuroides is recorded as 0 (Herbicidal ratio of 5% or less (almost no effect)). Also, the “herbicidal effect, N (Amaranthus retroflexus)” value with Amaranthus retroflexus is 1 (Herbicidal ratio of 5% or more and less than 20%). Moreover, in the series with Apera spica-venti., the “herbicidal effect, L (Apera spica-venti.)” value is 0 (Herbicidal ratio of 5% or less (almost no effect)). The “herbicidal effect, I (Avena fatua)” value in the series on Avena fatua was 1 (Herbicidal ratio of 5% or more and less than 20%). The “herbicidal effect, O (Chenopodium album)” value with Chenopodium album is 3 (Herbicidal ratio of 40% or more and less than 70%). Besides, the “herbicidal effect, F (Digitaria ciliaris)” value in the series with Digitaria ciliaris is recorded as 0 (Herbicidal ratio of 5% or less (almost no effect)). In series [2], the “herbicidal effect, H (Echinochloa crus-galli var. crus-galli)” value was 2 (Herbicidal ratio of 20% or more and less than 40%). In the series with Galium spurium, the “herbicidal effect, Q (Galium spurium)” value was 1 (Herbicidal ratio of 5% or more and less than 20%). Moreover, the “herbicidal effect, K (Lolium multiflorum Lam.)” value in the series on Lolium multiflorum Lam. is 0 (Herbicidal ratio of 5% or less (almost no effect)). Moreover, the “herbicidal effect, G (Setaria viridis)” value in the series on Setaria viridis is reported as 0 (Herbicidal ratio of 5% or less (almost no effect)). In addition, in the series with Stellaria media, the “herbicidal effect, P (Stellaria media)” value was 3 (Herbicidal ratio of 40% or more and less than 70%). In addition, in the series on Veronica persica, the “herbicidal effect, R (Veronica persica)” value was 1 (Herbicidal ratio of 5% or more and less than 20%). In [3], the “effect on crop, f (Beta vulgaris ssp. vulgaris)” value was 3 (Herbicidal ratio of 40% or more and less than 70%). In addition, the “effect on crop, g (Brassica campestris L.)” value in the series on Brassica campestris L. is given as 0 (Herbicidal ratio of 5% or less (almost no effect)). Further, in the series on Glycine max, the “effect on crop, c (Glycine max)” value is reported as 0 (Herbicidal ratio of 5% or less (almost no effect)). In addition, the “effect on crop, e (Triticum aestivum)” value with Triticum aestivum was 0 (Herbicidal ratio of 5% or less (almost no effect)). Moreover, the “effect on crop, b (Zea mays)” value with Zea mays was 0 (Herbicidal ratio of 5% or less (almost no effect)). In addition, the “effect on crop, d (directly sowed Oryza sativa)” value in series [4] is 1 (Herbicidal ratio of 5% or more and less than 20%).
